Like-named read-outs stand apart in the source and are kept apart here.
What was measured:
[1] = tested on: K. pneumoniae ATCC 13883; test: Bacterial susceptibility testing (MIC, CLSI microdilution); assay type: cell-based; conditions: Klebsiella pneumoniae, ATCC13883
Method: (§1) (Test Example 2) Method of Testing Susceptibility of Bacterial [MICs]
(§2) Minimum inhibitory concentration (MIC) were determined as recommended by the Clinical and Laboratory Standards Institute (CLSI) in 2010 (M100-520), in 2011 (M100-521), 2012 (M100-522) and in 2013 (M100-523) with minor modifications.
(§3) In short, bacterial cultures were streaked on Muller Hinton Agar plates and incubated at 35±2° C. for about 18 to 20 hours. Following day colony suspension was prepared in saline and adjusted to 0.5 McFarland using Densitometer. This culture was further diluted 100 fold in Muller Hinton Broth or M9 minimal media or pooled human urine and used for MIC determination. The test compounds were prepared in dimthylesulfoxide (DMSO) at concentration of 1 mg/mL, and diluted to 32 μg/mL in respective media. Further two fold serial dilution were prepared in 96 well microtiter plates. 50 μL of diluted cultures were added to all wells and incubated at 35±2° C. for about 16 to 20 hours.

[2] = tested on: P. aeruginosa; test: as above; assay type: cell-based; conditions: Pseudomonas aeruginosa, strain not stated, read-out: MIC against P. aeruginosa
Method: as §1, §2, §3

[3] = tested on: E. coli ATCC 25922; test: as above; assay type: cell-based; conditions: Escherichia coli, ATCC25922
Method: as §1, §2, §3

[4] = Oral bioavailability (BA) in mouse; assay type: in vivo; conditions: female, plasma, 8.5 mg/kg body weight, Swiss mice, 8.5 mg/kg oral, 4.25 mg/kg intravenous, read-out: oral absolute bioavailability
Method: (Test Example 8b) Oral Bioavailability (BA) in Mouse
To Female Swiss mouse (23±3 g) test compound was administered as 0.5 mg/mL intravenous and 1 mg/mL oral solution in milli-Q water (pH 5.0). The final dose was 4.25 mg/kg body weight (intravenous) and 8.5 mg/kg body weight (oral route). Plasma samples analyzed for test compound using LC-MS/MS method. Estimation of pharmacokinetic parameters was done by using moment analysis. WinNonlin software 6.1 (Pharsight) was utilized for the estimation of PK parameters and oral bioavailability.

[5] = Oral bioavailability (BA) in rats; assay type: in vivo; conditions: male, rat, plasma, 8.5 mg/kg body weight; Sprague Dawley Rats, 8.5 mg/kg oral, 4.25 mg/kg intravenous; read-out: oral absolute bioavailability
Method: (Test Example 8a) Oral Bioavailability (BA) in Rats
To Male Sprague Dawley Rats (215±10 g) test compound was administered as 2.0 mg/mL solution in milli-Q water (pH 5.0) by intravenous and oral route. The final dose was 4.25 mg/kg body weight (intravenous) or 8.5 mg/kg body weight (oral). Plasma samples analyzed for test compound using LC-MS/MS method. Estimation of pharmacokinetic parameters was done by using moment analysis. WinNonlin software 6.1 (Pharsight) was utilized for the estimation of PK parameters and oral bioavailability.

[6] = tested on: P. aeruginosa PAO-1; test: In vivo efficacy in P. aeruginosa PAO1 murine lung infection model; conditions: subcutaneous 75 mg/kg twice daily
Method: (Test Example 3c) In Vivo Efficacy in P. aeruginosa PAO1 Murine Lung Infection Model Overnight grown culture of P. aeruginosa PAO-1 on TSA agar was inoculated in Brain heart infusion broth (BHI, DIFCO) and grown in a shaker incubator with shaking at 110 rpm at 35±2° C. overnight. The culture was subcultured in 50 mL of BHI and incubated again at 110 rpm at 35±2° C. on a shaker incubator till the optical density of the culture reaches 0.5-0.7 units. For infection, animals were weighed, randomized and anesthetized by giving isofluorane. Under anesthesia the animals were infected with 50 μL of the inoculum prepared as above by intranasal route. The test compounds were administered at 75 mg/kg body weight by subcutaneous route after 1 hour and 6 hours post infection. Animals were euthanized, lungs were removed aseptically and homogenized in PBS (3 mL) and serial dilutions plated on TSA plates 24 hours post infection.

[7] = tested on: E. coli ATCC 25922; test: MICs in Muller Hinton Broth and pooled human urine; assay type: cell-based; conditions: Escherichia coli, ATCC25922
Method: as §3
(Test Example 4) MICs in Human Urine Against E. coli and K. pneumonia
Many antibacterial compounds like fluroquinolones loose activity in human urine at acidic pH (acidic urine promotes rigorous bacterial growth). MICs were performed using CLSI guidelines (2011) against E. coli 25922 in Muller Hinton Broth (MHB) and pooled human urine.

[8] = tested on: E. coli GK00432; test: In vivo efficacy in E. coli murine neutropenic thigh infection model; set-up: species or system Swiss albino mice; conditions: subcutaneous
Method: (Test Example 3b) In Vivo Efficacy in E. coli Murine Neutropenic Thigh Infection Model
Efficacy of test compounds were evaluated by subcutaneous (SC) route against E. coli GK00432 in neutropenic mouse thigh infection model. Study was performed in Swiss albino mice of either sex weighing 20±2 g. Neutropenia was induced by intraperitoneal injections of cyclophosphamide given twice prior to infection (150 mg/kg, at 4 days prior to infection, and 100 mg/kg, at 1 day prior to infection). E. coli inoculum (0.1 mL) was injected intra-muscularly in the thigh muscle. After 2 hours, test compound at a dose of 30 mg/kg and 60 mg/kg body weight were administered by subcutaneous route and one group of mice (n=5) was sacrificed to evaluate total live bacterial count per thigh as baseline bacterial loads. Remaining three doses of test compound were administered by subcutaneous route after […] hours of the infection. Animals were euthanized, thigh muscles were removed aseptically and homogenized in phosphate buffered saline (3 mL) and serial dilutions plated Tryptone Soya Agar plates 26 hours post infection.

[9] = tested on: P. aeruginosa PAO1 (parent, MexAB del, MexAB over expression); test: MICs against Pseudomonas efflux pump mutants; assay type: cell-based
Method: as §3
(Test Example 5) MICs Against Pseudomonas Efflux Pump Mutants
Multidrug-resistant (MDR) P. aeruginosa isolated from nosocomial infections in intensive care units (ICUs) are often related to altered regulation of the specific efflux pumps and porins in P. aeruginosa strains. Tested compounds that show similar activity against efflux pump overproducers and lab strains can be predictive of activity in nosocomial patients infected with MDR strains. To identify such compounds we have determined MICs against P. aeruginosa PAO1 against Efflux deleted and overproducer strains.

[10] = target: T1, E. coli LRS (Escherichia coli, UniProt P07813); test: Leucine tRNA synthetase (LRS) enzyme inhibition assay; assay type: biochemical
T1 construct: made in house
Method: (§4) (Test Example 1) Leucine tRNA Synthetase (LRS) Enzyme Inhibition Assay [IC50]
(§5) E. coli and P. aeruginosa LRS enzymes were cloned, expressed and purified in-house. The IC50 values were determined by using following assay protocol.
(§6) Test compounds were diluted in milli-Q water. 5 μL (microliter) of test compound dilution was mixed with 20 μL of reaction mixture consisting of 100 millimolar Tris (Trizma base from Sigma), 120 millimolar potassium chloride (Sigma), […] magnesium chloride (Sigma), 50 millimolar dithiothreitol, 50 mg/mL E. coli tRNA (Roche), 150 micromolar leucine (Sigma), 0.5 microcurie of ^3H Leucine (Amersham) and 20 μL of appropriate dilution of LRS enzyme, incubate in shaker at about 30° C. for 20 minutes. The reaction was started by adding 5 μL of 40 millimolar ATP (Sigma) and incubated on shaker at the same temperature further for 20 minutes. The reaction was quenched with 150 μL ice cold trichloroacetic acid (10%). The content of each well was transferred to 96 well GF/C plates (from Pall), and washed with 150 μL of trichloroacetic acid (5%) using vacuum manifold (from Pall). Plates were dried and read using Microbeta Wallac liquid scintillation counters after adding 100 μL of scintillation cocktail (Perkin Elmer's OptiPhase ‘SuperMix’) to each well. IC50 was calculated with respect to enzyme control after subtracting background (No enzyme control) using Graph Pad Prism software.

[11] = target: T2, P. aeruginosa LRS (Pseudomonas aeruginosa, UniProt Q9HX33); test: as above; assay type: biochemical; conditions: 3H leucine incorporation
T2 construct: made in house
Method: as §4, §5, §6

[12] = tested on: P. aeruginosa PAO1; test: In vivo efficacy in urinary tract infection (UTI) ascending model; set-up: species or system Mouse; conditions: 60 mg/kg body weight twice daily for 3 days, 4th day of infection
Method: (Test Example 3a) In Vivo Efficacy in Urinary Tract Infection (UTI) Model Mouse P. aeruginosa UTI ascending model was used. All animals were infected with P. aeruginosa PAO1 by intra-urethral route. Randomization was done 18 hours post infection before starting treatment. Therapy was initiated 18 hours post infection. Animals were treated with 30 mg/kg and 60 mg/kg body weight of test compounds twice daily for 3 days. Animals were sacrificed and cfu loads in kidney and bladder were detected by serial dilution platting on drug free TSA plates on day 4.

[13] = Muller Hinton Broth, read-out: E. coli ATCC 25922 MIC (μg/mL) MHB
[14] = pooled human urine pH 5.5, read-out: E. coli ATCC 25922 MIC (μg/mL) Urine pH 5.5
[15] = PAO1, read-out: MIC (μg/mL) P. aeruginosa PAO1 MexAB del
[16] = PAO1, read-out: MIC (μg/mL) P. aeruginosa PAO1 MexAB over expression
[17] = PAO1, read-out: MIC (μg/mL) P. aeruginosa PAO1 Parent

T1 sequence (P07813 whole entry): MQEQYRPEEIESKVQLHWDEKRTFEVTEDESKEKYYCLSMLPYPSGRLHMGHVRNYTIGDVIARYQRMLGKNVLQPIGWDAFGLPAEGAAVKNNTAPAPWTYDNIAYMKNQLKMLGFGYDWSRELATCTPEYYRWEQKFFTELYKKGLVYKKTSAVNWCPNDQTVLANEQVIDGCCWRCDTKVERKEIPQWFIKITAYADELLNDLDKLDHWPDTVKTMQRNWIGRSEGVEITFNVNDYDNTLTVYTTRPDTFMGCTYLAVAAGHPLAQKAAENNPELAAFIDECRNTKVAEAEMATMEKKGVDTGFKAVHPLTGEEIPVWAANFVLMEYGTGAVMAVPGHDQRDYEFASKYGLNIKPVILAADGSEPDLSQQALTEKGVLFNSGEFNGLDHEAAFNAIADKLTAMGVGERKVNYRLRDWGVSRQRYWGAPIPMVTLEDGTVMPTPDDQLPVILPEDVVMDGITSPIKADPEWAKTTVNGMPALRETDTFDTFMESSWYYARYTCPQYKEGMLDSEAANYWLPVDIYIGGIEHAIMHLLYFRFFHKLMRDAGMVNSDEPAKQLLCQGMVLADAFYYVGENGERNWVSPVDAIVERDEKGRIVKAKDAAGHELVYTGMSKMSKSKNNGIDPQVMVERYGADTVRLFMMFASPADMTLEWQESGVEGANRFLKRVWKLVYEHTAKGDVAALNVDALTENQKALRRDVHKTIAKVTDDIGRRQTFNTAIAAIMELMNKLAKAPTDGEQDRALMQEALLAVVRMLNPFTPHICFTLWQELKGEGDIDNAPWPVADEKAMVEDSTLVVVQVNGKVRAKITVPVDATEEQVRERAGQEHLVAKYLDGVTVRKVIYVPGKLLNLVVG
T2 sequence (Q9HX33 whole entry): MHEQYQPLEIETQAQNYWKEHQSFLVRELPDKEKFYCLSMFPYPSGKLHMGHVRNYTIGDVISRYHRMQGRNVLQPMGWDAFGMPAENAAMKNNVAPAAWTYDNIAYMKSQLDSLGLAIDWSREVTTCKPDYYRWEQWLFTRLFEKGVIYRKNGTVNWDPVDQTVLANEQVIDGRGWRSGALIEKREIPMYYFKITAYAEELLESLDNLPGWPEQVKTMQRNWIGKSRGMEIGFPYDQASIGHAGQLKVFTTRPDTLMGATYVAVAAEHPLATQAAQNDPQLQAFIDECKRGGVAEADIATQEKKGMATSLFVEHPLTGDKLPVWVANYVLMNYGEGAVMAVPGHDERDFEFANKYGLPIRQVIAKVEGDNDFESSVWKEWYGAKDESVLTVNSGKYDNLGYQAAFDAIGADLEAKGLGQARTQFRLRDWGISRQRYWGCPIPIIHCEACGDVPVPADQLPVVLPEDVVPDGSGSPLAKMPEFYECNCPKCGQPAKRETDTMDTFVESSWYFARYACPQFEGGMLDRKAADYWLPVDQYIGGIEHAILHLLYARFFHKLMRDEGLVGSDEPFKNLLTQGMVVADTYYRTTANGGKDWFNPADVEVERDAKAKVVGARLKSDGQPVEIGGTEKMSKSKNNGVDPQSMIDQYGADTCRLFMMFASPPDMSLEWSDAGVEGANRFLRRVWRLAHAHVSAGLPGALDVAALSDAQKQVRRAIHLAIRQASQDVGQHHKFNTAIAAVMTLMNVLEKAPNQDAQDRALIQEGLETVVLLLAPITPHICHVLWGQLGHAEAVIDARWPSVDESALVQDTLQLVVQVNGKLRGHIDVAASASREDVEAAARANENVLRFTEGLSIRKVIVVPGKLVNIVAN

| Structure (SMILES) | MIC [1] [µg/mL] | MIC [2] [µg/mL] | MIC [3] [µg/mL] | bioavailability [4] [%] | bioavailability [5] [%] | log reduction in cfu from 24 hours untreated control [6] [log] | log reduction in cfu's from baseline [6] [log] | MIC [7, 13] [µg/mL] | MIC [7, 14] [µg/mL] | log reduction in colony forming units (cfu) from 26 hours untreated control ([8]; 30 mg/kg four times daily (QID)) [log] | log reduction in colony forming units (cfu) from 26 hours untreated control ([8]; 60 mg/kg four times daily (QID)) [log] | MIC [9, 15] [µg/mL] | MIC [9, 16] [µg/mL] | MIC [9, 17] [µg/mL] | IC50 [10] [nM] | IC50 [11] [µM] | log reduction from the untreated control in bladder counts ([12]; bladder) [log] | log reduction from the untreated control in kidney counts ([12]; kidney) [log] |
| --- | --- | --- | --- | --- | --- | --- | --- | --- | --- | --- | --- | --- | --- | --- | --- | --- | --- | --- |
| Cl.NC[C@H]1OB(O)c2ccc3c(c21)OCO3 (single isomer, unassigned) [Compound 6] | 1 | 2 | 1 | 62 | 72 | 4.04 | 2.58 | – | – | – | – | – | – | – | – | – | – | – |
| Cl.NCC1OB(O)c2ccc3c(c21)OCO3 (stereo not shown) [Compound 5, 8-(aminomethyl)[1,3]dioxolo[4,5-e][2,1]benzoxaborol-6(8H)-ol hydrochloride] | 1 | 8 | 1 | – | – | – | – | 2 | 4 | 3.1 | 3.8 | 4 | 8 | 4 | 800 | 2.3 | – | – |
| Cl.NC[C@H]1OB(O)c2c1ccc1c2OCO1 (single isomer, unassigned) [Compound 10] | 0.5 | 1 | 2 | – | – | 3.53 | 2.07 | 2 | 4 | – | – | 1 | 1 | 1 | – | – | 3.83 | 4.18 |
